The values below come from patent US20260250289A1, “BICYCLIC HETEROCYCLES AND THEIR USE AS WRN INHIBITORS” (Novartis AG, priority 2022, published 2026).

One assay deals with SW48 cells. Description: Proliferation assay SW48 (CellTiterGlo). Format: cell-based. The settings on record: Homo sapiens, SW48, 96 h, SW48 colon carcinoma cells, 96 hours, CellTiterGlo; geometric mean of at least 2; read-out: Proliferation Assay SW48 GI50. In outline:
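SW48 cells, 2,000/well, treated after overnight seeding with eight 3-fold compound dilutions (0.1% DMSO) for 96 hours at 37° C. Viability read as ATP by CellTiterGlo luminescence, normalised to a day-0 plate and vehicle to give % growth; GI50 is geometric mean of ≥2 independent replicates.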

Assay [1] addresses T1, WRN helicase (aa N517-P1238) (Homo sapiens, UniProt Q14191).
T1 construct: The core helicase motif of the WRN protein (aa N517-P1238) was produced for this assay; His (N); ZZ (N); 3C protease cleavage site (N); made in house; host or cells: Sf21 insect cells (baculovirus; virus and BIICs made in SF9)
Description: WRN ATPase assay (DNA dependent ATP hydrolysis, ADP-Glo). Format: biochemical. To be noted: 3 hours pre-incubation, 300 micromolar ATP, FLAP26 DNA; geometric mean of at least 2. In outline:
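DNA-dependent ATP hydrolysis detected as ADP by ADP-Glo luminescence, using 300 μM ATP, 0.2 nM FLAP26 substrate and 10 nM WRN aa N517-P1238 (Tris pH 7.5 buffer, 2 mM MgCl2, 50 mM NaCl). IC50s fitted from normalized duplicate half-log dilutions; reported as geometric means of at least 2 replicates.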

The subject of another assay is DLD1-WRN-KO cells. Description: Proliferation assay DLD1-WRN-KO (CellTiterGlo, off-target effects). The assay is classed as cell-based. To be noted: 96 hours, geometric mean of at least 2. In outline:
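DLD1 cells with CRISPR knockout of WRN were exposed overnight-seeded to eight 3-fold compound dilutions (0.1% DMSO) for 96 h at 37 °C. Viability was read as ATP by CellTiterGlo luminescence against a day-0 plate, giving GI50 and residual viability at top concentration.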
A general note: Cellular ATP, detected with luciferase, serves as a proxy for viable cell number.

T1 sequence (Q14191 517-1238): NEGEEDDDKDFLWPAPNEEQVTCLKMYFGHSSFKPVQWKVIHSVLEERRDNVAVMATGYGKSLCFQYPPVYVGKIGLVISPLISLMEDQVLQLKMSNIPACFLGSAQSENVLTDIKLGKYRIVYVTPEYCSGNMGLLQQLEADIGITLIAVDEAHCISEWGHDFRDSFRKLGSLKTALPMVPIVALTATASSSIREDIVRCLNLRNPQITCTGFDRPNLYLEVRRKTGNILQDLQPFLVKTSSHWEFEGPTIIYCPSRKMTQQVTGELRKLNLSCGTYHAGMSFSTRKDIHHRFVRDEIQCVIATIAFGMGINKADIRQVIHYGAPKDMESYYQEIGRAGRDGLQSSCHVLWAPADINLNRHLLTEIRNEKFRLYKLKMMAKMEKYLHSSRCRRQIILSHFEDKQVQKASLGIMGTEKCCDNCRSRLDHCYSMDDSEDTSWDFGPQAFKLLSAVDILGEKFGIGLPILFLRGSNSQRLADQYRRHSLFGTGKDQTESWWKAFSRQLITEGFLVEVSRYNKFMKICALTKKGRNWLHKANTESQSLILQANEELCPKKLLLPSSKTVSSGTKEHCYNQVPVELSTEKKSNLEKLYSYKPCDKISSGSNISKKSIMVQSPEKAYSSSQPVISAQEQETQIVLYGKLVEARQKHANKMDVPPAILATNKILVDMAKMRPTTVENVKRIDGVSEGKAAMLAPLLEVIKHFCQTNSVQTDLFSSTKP

With `Cc1c(N2CCN(C(=O)Nc3nccs3)CC2)c(=O)n2nc(C3=CCOCC3)nc2n1CC(=O)Nc1ccc(C(F)(F)F)cc1` [Example 29, 4-(2-(3,6-dihydro-2H-pyran-4-yl)-5-methyl-7-oxo-4-(2-oxo-2-((4-(trifluoromethyl)phenyl)amino)ethyl)-4,7-dihydro-[1,2,4]triazolo[1,5-a]pyrimidin-6-yl)-N-(thiazol-2-yl)piperazine-1-carboxamide], the GI50 in the assay on SW48 cells is 2000 nM; in the assay on DLD1-WRN-KO cells, greater than 10000 nM. Further, the IC50 (usually the concentration that gives 50% inhibition) in assay [1] stood at 100 nM.

Regarding `CCc1ccc(NC(=O)Cn2c(C)c(N3CCN(C(C)=O)CC3)c(=O)n3nc(C4=CCOCC4)nc23)cc1Cl` [Example 30, 2-(6-(4-acetylpiperazin-1-yl)-2-(3,6-dihydro-2H-pyran-4-yl)-5-methyl-7-oxo-[1,2,4]triazolo[1,5-a]pyrimidin-4(7H)-yl)-N-(3-chloro-4-ethylphenyl)acetamide], the GI50 with SW48 cells is 2000 nM; in the assay with DLD1-WRN-KO cells, greater than 10000 nM. This molecule also displayed an IC50 in assay [1] of 100 nM.

Take `CCc1ccc(NC(=O)Cn2c(C)c(N3CCN(C(C)=O)CC3)c(=O)n3nc(C4=CCCCO4)nc23)cc1Cl` [Example 31, 2-(6-(4-acetylpiperazin-1-yl)-2-(3,4-dihydro-2H-pyran-6-yl)-5-methyl-7-oxo-[1,2,4]triazolo[1,5-a]pyrimidin-4(7H)-yl)-N-(3-chloro-4-ethylphenyl)acetamide]: the GI50 with SW48 cells is 6000 nM; in the assay with DLD1-WRN-KO cells it was greater than 10000 nM. The molecule further registered a half-maximal inhibitory concentration (IC50) in assay [1] of 200 nM.

For the molecule `CC(=O)N1CCN(c2c(C)n(CC(=O)Nc3ccc(C(F)(F)F)cc3Br)c3nc(C4=CCOCC4)nn3c2=O)CC1` [Example 32, 2-(6-(4-acetylpiperazin-1-yl)-2-(3,6-dihydro-2H-pyran-4-yl)-5-methyl-7-oxo-[1,2,4]triazolo[1,5-a]pyrimidin-4(7H)-yl)-N-(2-bromo-4-(trifluoromethyl)phenyl)acetamide], the GI50 with SW48 cells was 3000 nM; in the assay with DLD1-WRN-KO cells, greater than 10000 nM. Further, in assay [1], it took 800 nM to reach half-maximal inhibition (IC50).

Regarding `CCc1c(N2CCN(C(=O)CN)CC2)c(=O)n2nc(C3=CCC(OC)CC3)nc2n1CC(=O)Nc1ccc(C(F)(F)F)cc1` (stereo not drawn) [Example 33, 2-(5-ethyl-6-(4-glycylpiperazin-1-yl)-2-(4-methoxycyclohex-1-en-1-yl)-7-oxo-[1,2,4]triazolo[1,5-a]pyrimidin-4(7H)-yl)-N-(4-(trifluoromethyl)phenyl)acetamide], the GI50 in the assay on SW48 cells was 8000 nM; with DLD1-WRN-KO cells, greater than 10000 nM. The same molecule displayed an IC50 in assay [1] of 1000 nM.

Consider `CCc1c(N2CCN(C(=O)c3ncnc(C)c3OC)CC2)c(=O)n2nc(C3=CCOCC3)nc2n1CC(=O)Nc1ccc(C(F)(F)F)cc1C` [Example 34, 2-(2-(3,6-dihydro-2H-pyran-4-yl)-5-ethyl-6-(4-(5-methoxy-6-methylpyrimidine-4-carbonyl)piperazin-1-yl)-7-oxo-[1,2,4]triazolo[1,5-a]pyrimidin-4(7H)-yl)-N-(2-methyl-4-(trifluoromethyl)phenyl)acetamide], for which the GI50 was 7000 nM in the assay with SW48 cells and greater than 10000 nM in the assay with DLD1-WRN-KO cells. Moreover, half-maximal inhibition in assay [1] (IC50) required 5000 nM.

Regarding `Cc1c(N2CCN(C(=O)c3c(O)ccc4ccnn34)CC2)c(=O)n2nc(C3=CCOCC3)nc2n1CC(=O)Nc1ccc(C(F)(F)F)cc1` [Example 35, 2-(2-(3,6-dihydro-2H-pyran-4-yl)-6-(4-(6-hydroxypyrazolo[1,5-a]pyridine-7-carbonyl)piperazin-1-yl)-5-methyl-7-oxo-[1,2,4]triazolo[1,5-a]pyrimidin-4(7H)-yl)-N-(4-(trifluoromethyl)phenyl)acetamide], the values for the GI50 in the assay with SW48 cells and in the assay with DLD1-WRN-KO cells were 300 nM and greater than 10000 nM, respectively. The molecule further showed an IC50 in assay [1] of 40 nM.

`Cc1c(N2CCN(C(=O)c3ccncc3O)CC2)c(=O)n2nc(C3=CCOCC3)nc2n1CC(=O)Nc1ccc(C(F)(F)F)cc1` [Example 36, 2-(2-(3,6-dihydro-2H-pyran-4-yl)-6-(4-(3-hydroxyisonicotinoyl)piperazin-1-yl)-5-methyl-7-oxo-[1,2,4]triazolo[1,5-a]pyrimidin-4(7H)-yl)-N-(4-(trifluoromethyl)phenyl)acetamide]: the GI50 in the assay on SW48 cells and with DLD1-WRN-KO cells was greater than 10000 nM each time. Besides, the midpoint of inhibition in assay [1], the IC50, lay at 100 nM.

As to `CCc1c(N2CCN(C(=O)c3ncc4c(c3O)OCC4)CC2)c(=O)n2nc(C3=CCOCC3)nc2n1CC(=O)Nc1ccc(C(F)(F)F)cc1C` [Example 37, 2-(2-(3,6-dihydro-2H-pyran-4-yl)-5-ethyl-6-(4-(7-hydroxy-2,3-dihydrofuro[3,2-c]pyridine-6-carbonyl)piperazin-1-yl)-7-oxo-[1,2,4]triazolo[1,5-a]pyrimidin-4(7H)-yl)-N-(2-methyl-4-(trifluoromethyl)phenyl)acetamide], the GI50 in the assay on SW48 cells was 90 nM; in the assay on DLD1-WRN-KO cells it was greater than 10000 nM. This molecule came in with an IC50 in assay [1] of 90 nM.

As to `CCc1c(N2CCN(C(=O)c3c(F)ccc(F)c3O)CC2)c(=O)n2nc(C3=CCCCO3)nc2n1CC(=O)Nc1ccc(C(F)(F)F)cc1` [Example 38, 2-(6-(4-(3,6-difluoro-2-hydroxybenzoyl)piperazin-1-yl)-2-(3,4-dihydro-2H-pyran-6-yl)-5-ethyl-7-oxo-[1,2,4]triazolo[1,5-a]pyrimidin-4(7H)-yl)-N-(4-(trifluoromethyl)phenyl)acetamide], the results for the GI50 in the assay on SW48 cells and in the assay with DLD1-WRN-KO cells were 100 nM and greater than 10000 nM, respectively. This molecule also yielded an IC50 in assay [1] of 30 nM.

As to `CCc1c(N2CCN(C(=O)c3ccc(F)c(F)c3O)CC2)c(=O)n2nc(C3=CCCCO3)nc2n1CC(=O)Nc1ccc(C(F)(F)F)cc1` [Example 39, 2-(6-(4-(3,4-difluoro-2-hydroxybenzoyl)piperazin-1-yl)-2-(3,4-dihydro-2H-pyran-6-yl)-5-ethyl-7-oxo-[1,2,4]triazolo[1,5-a]pyrimidin-4(7H)-yl)-N-(4-(trifluoromethyl)phenyl)acetamide], the GI50 in the assay with SW48 cells is 300 nM; with DLD1-WRN-KO cells, 4000 nM. The molecule also had an IC50 in assay [1] of 30 nM.

Regarding `CCc1c(N2CCN(C(=O)c3c(O)ccc4ccncc34)CC2)c(=O)n2nc(C3=CCOCC3)nc2n1CC(=O)Nc1ccc(C(F)(F)F)cc1C` [Example 40, 2-(2-(3,6-dihydro-2H-pyran-4-yl)-5-ethyl-6-(4-(7-hydroxyisoquinoline-8-carbonyl)piperazin-1-yl)-7-oxo-[1,2,4]triazolo[1,5-a]pyrimidin-4(7H)-yl)-N-(2-methyl-4-(trifluoromethyl)phenyl)acetamide], the GI50 in the assay on SW48 cells was 600 nM; with DLD1-WRN-KO cells, greater than 10000 nM. The half-inhibitory concentration (IC50) in assay [1] worked out at 40 nM.

For the molecule `CCc1c(N2CCN(C(=O)c3ccnc(F)c3O)CC2)c(=O)n2nc(C3=CCOCC3)nc2n1CC(=O)Nc1ccc(C(F)(F)F)cc1Cl` [Example 42, N-(2-chloro-4-(trifluoromethyl)phenyl)-2-(2-(3,6-dihydro-2H-pyran-4-yl)-5-ethyl-6-(4-(2-fluoro-3-hydroxyisonicotinoyl)piperazin-1-yl)-7-oxo-[1,2,4]triazolo[1,5-a]pyrimidin-4(7H)-yl)acetamide], the GI50 was 500 nM with SW48 cells and greater than 10000 nM in the assay on DLD1-WRN-KO cells. The same molecule showed an IC50 in assay [1] of 70 nM.

Consider `CCc1c(N2CCN(C(=O)c3ccn4ccnc4c3O)CC2)c(=O)n2nc(C3=CCOCC3)nc2n1CC(=O)Nc1ccc(C(F)(F)F)cc1C` [Example 43, 2-(2-(3,6-dihydro-2H-pyran-4-yl)-5-ethyl-6-(4-(8-hydroxyimidazo[1,2-a]pyridine-7-carbonyl)piperazin-1-yl)-7-oxo-[1,2,4]triazolo[1,5-a]pyrimidin-4(7H)-yl)-N-(2-methyl-4-(trifluoromethyl)phenyl)acetamide], for which the figures for the GI50 in the assay on SW48 cells and with DLD1-WRN-KO cells were 1000 nM and greater than 10000 nM, respectively. Inhibition in assay [1] was half-maximal at 80 nM (IC50).

On to `CCc1c(N2CCN(C(=O)c3c(O)ccc4nccn34)CC2)c(=O)n2nc(C3=CCOCC3)nc2n1CC(=O)Nc1ccc(C(F)(F)F)cc1C` [Example 44, 2-(2-(3,6-dihydro-2H-pyran-4-yl)-5-ethyl-6-(4-(6-hydroxyimidazo[1,2-a]pyridine-5-carbonyl)piperazin-1-yl)-7-oxo-[1,2,4]triazolo[1,5-a]pyrimidin-4(7H)-yl)-N-(2-methyl-4-(trifluoromethyl)phenyl)acetamide], for which the results for the GI50 in the assay on SW48 cells and in the assay with DLD1-WRN-KO cells were 900 nM and greater than 10000 nM, respectively. Besides, the IC50 in assay [1] was found to be 80 nM.

In the case of `CCc1c(N2CCN(C(=O)c3ccc(Cl)c(F)c3O)CC2)c(=O)n2nc(C3=CCOCC3)nc2n1CC(=O)Nc1ccc(C(F)(F)F)cc1C` [Example 45, 2-(6-(4-(4-chloro-3-fluoro-2-hydroxybenzoyl)piperazin-1-yl)-2-(3,6-dihydro-2H-pyran-4-yl)-5-ethyl-7-oxo-[1,2,4]triazolo[1,5-a]pyrimidin-4(7H)-yl)-N-(2-methyl-4-(trifluoromethyl)phenyl)acetamide], the GI50 with SW48 cells is 300 nM; in the assay with DLD1-WRN-KO cells, greater than 10000 nM. Besides, the IC50 in assay [1] is 90 nM.
